Tested on: healthy Chinese participants
Test: Safety assessments (treatment-emergent adverse events)
Format: in vivo, human
Settings: for safety and tolerability, in words: single dose of 10 mg or 20 mg and multiple doses of 5 mg, oral
Protocol: Safety was evaluated based on the occurrence, frequency, and severity of adverse events (AEs). Routine clinical laboratory tests, 12‐lead ECGs, physical examinations, and vital signs (blood pressure, pulse rate, and body temperature) were performed at initial screening, day 1, during the treatment period until discharge or early termination. The AEs were monitored from the initial administration to the last follow-up after the last treatment. The AEs were assessed by the investigators with regard to severity (mild, moderate, severe, and life‐threatening) and the relationship to study treatment (reasonably or possibly related and not reasonably or not possibly related).

Compound: CCc1nc(-c2ccc3c(c2)CC[C@H]3NC(=O)c2cnn(C)c2)no1 [aficamten]
- TEAE Alanine aminotransferase increased, Number (%) of Subjects (MD 5 mg (N = 9)): 0 Number (%)
- TEAE Blood bilirubin increased, Number (%) of Subjects (MD 5 mg (N = 9)): 0 Number (%)
- TEAE Blood creatine phosphokinase increased, Events (MD 5 mg (N = 9)): 1
- TEAE Blood creatine phosphokinase increased, Number (%) of Subjects (MD 5 mg (N = 9)): 1(11.1) Number (%)
- TEAE Blood creatinine increased, Events (MD 5 mg (N = 9)): 1
- TEAE Blood creatinine increased, Number (%) of Subjects (MD 5 mg (N = 9)): 1(11.1) Number (%)
- TEAE Blood sodium decreased, Events (MD 5 mg (N = 9)): 1
- TEAE Blood sodium decreased, Number (%) of Subjects (MD 5 mg (N = 9)): 1(11.1) Number (%)
- TEAE Cardiac disorders (SOC), Number (%) of Subjects (MD 5 mg (N = 9)): 0 Number (%)
- TEAE Chest discomfort, Number (%) of Subjects (MD 5 mg (N = 9)): 0 Number (%)
- TEAE Conjugated bilirubin increased, Events (MD 5 mg (N = 9)): 2
- TEAE Conjugated bilirubin increased, Number (%) of Subjects (MD 5 mg (N = 9)): 2(22.2) Number (%)
- TEAE Gamma-glutamyltransferase increased, Number (%) of Subjects (MD 5 mg (N = 9)): 0 Number (%)
- TEAE Gastrointestinal disorders (SOC), Number (%) of Subjects (MD 5 mg (N = 9)): 0 Number (%)
- TEAE General disorders and administration site conditions (SOC), Number (%) of Subjects (MD 5 mg (N = 9)): 0 Number (%)
- TEAE Heart rate decreased, Number (%) of Subjects (MD 5 mg (N = 9)): 0 Number (%)
- TEAE Investigations (SOC), Events (MD 5 mg (N = 9)): 13
- TEAE Investigations (SOC), Number (%) of Subjects (MD 5 mg (N = 9)): 6(66.7) Number (%)
- TEAE Nausea, Number (%) of Subjects (MD 5 mg (N = 9)): 0 Number (%)
- TEAE Neutrophil count decreased, Events (MD 5 mg (N = 9)): 2
- TEAE Neutrophil count decreased, Number (%) of Subjects (MD 5 mg (N = 9)): 1(11.1) Number (%)
- TEAE Neutrophil count increased (first line, r9), Events (MD 5 mg (N = 9)): 1
- TEAE Neutrophil count increased (first line, r9), Number (%) of Subjects (MD 5 mg (N = 9)): 1(11.1) Number (%)
- TEAE Neutrophil count increased (second line, r18), Events (MD 5 mg (N = 9)): 1
- TEAE Neutrophil count increased (second line, r18), Number (%) of Subjects (MD 5 mg (N = 9)): 1(11.1) Number (%)
- TEAE Rash, Events (MD 5 mg (N = 9)): 1
- TEAE Rash, Number (%) of Subjects (MD 5 mg (N = 9)): 1(11.1) Number (%)
- TEAE Skin and subcutaneous tissue disorders (SOC), Events (MD 5 mg (N = 9)): 1
- TEAE Skin and subcutaneous tissue disorders (SOC), Number (%) of Subjects (MD 5 mg (N = 9)): 1(11.1) Number (%)
- TEAE Systolic blood pressure decreased, Events (MD 5 mg (N = 9)): 3
- TEAE Systolic blood pressure decreased, Number (%) of Subjects (MD 5 mg (N = 9)): 2(22.2) Number (%)
- TEAE Ventricular hypokinesia, Number (%) of Subjects (MD 5 mg (N = 9)): 0 Number (%)
- TEAE White blood cell count decreased, Number (%) of Subjects (MD 5 mg (N = 9)): 0 Number (%)
- TEAE White blood cell count increased, Events (MD 5 mg (N = 9)): 1
- TEAE White blood cell count increased, Number (%) of Subjects (MD 5 mg (N = 9)): 1(11.1) Number (%)
- TEAEs, Events (MD 5 mg (N = 9)): 14
- TEAEs, Number (%) of Subjects (MD 5 mg (N = 9)): 6(66.7) Number (%)
- TEAE Alanine aminotransferase increased, Number (%) of Subjects (SAD 10 mg (N = 6)): 0 Number (%)
- TEAE Blood bilirubin increased, Number (%) of Subjects (SAD 10 mg (N = 6)): 0 Number (%)
- TEAE Blood creatine phosphokinase increased, Number (%) of Subjects (SAD 10 mg (N = 6)): 0 Number (%)
- TEAE Blood creatinine increased, Number (%) of Subjects (SAD 10 mg (N = 6)): 0 Number (%)
- TEAE Blood sodium decreased, Number (%) of Subjects (SAD 10 mg (N = 6)): 0 Number (%)
- TEAE Cardiac disorders (SOC), Events (SAD 10 mg (N = 6)): 1
- TEAE Cardiac disorders (SOC), Number (%) of Subjects (SAD 10 mg (N = 6)): 1(16.7) Number (%)
- TEAE Chest discomfort, Number (%) of Subjects (SAD 10 mg (N = 6)): 0 Number (%)
- TEAE Conjugated bilirubin increased, Number (%) of Subjects (SAD 10 mg (N = 6)): 0 Number (%)
- TEAE Gamma-glutamyltransferase increased, Number (%) of Subjects (SAD 10 mg (N = 6)): 0 Number (%)
- TEAE Gastrointestinal disorders (SOC), Number (%) of Subjects (SAD 10 mg (N = 6)): 0 Number (%)
- TEAE General disorders and administration site conditions (SOC), Number (%) of Subjects (SAD 10 mg (N = 6)): 0 Number (%)
- TEAE Heart rate decreased, Number (%) of Subjects (SAD 10 mg (N = 6)): 0 Number (%)
- TEAE Investigations (SOC), Events (SAD 10 mg (N = 6)): 2
- TEAE Investigations (SOC), Number (%) of Subjects (SAD 10 mg (N = 6)): 1(16.7) Number (%)
- TEAE Nausea, Number (%) of Subjects (SAD 10 mg (N = 6)): 0 Number (%)
- TEAE Neutrophil count decreased, Events (SAD 10 mg (N = 6)): 1
- TEAE Neutrophil count decreased, Number (%) of Subjects (SAD 10 mg (N = 6)): 1(16.7) Number (%)
- TEAE Neutrophil count increased (first line, r9), Number (%) of Subjects (SAD 10 mg (N = 6)): 0 Number (%)
- TEAE Neutrophil count increased (second line, r18), Number (%) of Subjects (SAD 10 mg (N = 6)): 0 Number (%)
- TEAE Rash, Number (%) of Subjects (SAD 10 mg (N = 6)): 0 Number (%)
- TEAE Skin and subcutaneous tissue disorders (SOC), Number (%) of Subjects (SAD 10 mg (N = 6)): 0 Number (%)
- TEAE Systolic blood pressure decreased, Number (%) of Subjects (SAD 10 mg (N = 6)): 0 Number (%)
- TEAE Ventricular hypokinesia, Events (SAD 10 mg (N = 6)): 1
- TEAE Ventricular hypokinesia, Number (%) of Subjects (SAD 10 mg (N = 6)): 1(16.7) Number (%)
- TEAE White blood cell count decreased, Events (SAD 10 mg (N = 6)): 1
- TEAE White blood cell count decreased, Number (%) of Subjects (SAD 10 mg (N = 6)): 1(16.7) Number (%)
- TEAE White blood cell count increased, Number (%) of Subjects (SAD 10 mg (N = 6)): 0 Number (%)
- TEAEs, Events (SAD 10 mg (N = 6)): 3
- TEAEs, Number (%) of Subjects (SAD 10 mg (N = 6)): 1(16.7) Number (%)
- TEAE Alanine aminotransferase increased, Number (%) of Subjects (SAD 20 mg (N = 6)): 0 Number (%)
- TEAE Blood bilirubin increased, Events (SAD 20 mg (N = 6)): 1
- TEAE Blood bilirubin increased, Number (%) of Subjects (SAD 20 mg (N = 6)): 1(16.7) Number (%)
- TEAE Blood creatine phosphokinase increased, Number (%) of Subjects (SAD 20 mg (N = 6)): 0 Number (%)
- TEAE Blood creatinine increased, Number (%) of Subjects (SAD 20 mg (N = 6)): 0 Number (%)
- TEAE Blood sodium decreased, Number (%) of Subjects (SAD 20 mg (N = 6)): 0 Number (%)
- TEAE Cardiac disorders (SOC), Number (%) of Subjects (SAD 20 mg (N = 6)): 0 Number (%)
- TEAE Chest discomfort, Events (SAD 20 mg (N = 6)): 2
- TEAE Chest discomfort, Number (%) of Subjects (SAD 20 mg (N = 6)): 1(16.7) Number (%)
- TEAE Conjugated bilirubin increased, Events (SAD 20 mg (N = 6)): 2
- TEAE Conjugated bilirubin increased, Number (%) of Subjects (SAD 20 mg (N = 6)): 2(33.3) Number (%)
- TEAE Gamma-glutamyltransferase increased, Number (%) of Subjects (SAD 20 mg (N = 6)): 0 Number (%)
- TEAE Gastrointestinal disorders (SOC), Events (SAD 20 mg (N = 6)): 1
- TEAE Gastrointestinal disorders (SOC), Number (%) of Subjects (SAD 20 mg (N = 6)): 1(16.7) Number (%)
- TEAE General disorders and administration site conditions (SOC), Events (SAD 20 mg (N = 6)): 2
- TEAE General disorders and administration site conditions (SOC), Number (%) of Subjects (SAD 20 mg (N = 6)): 1(16.7) Number (%)
- TEAE Heart rate decreased, Events (SAD 20 mg (N = 6)): 2
- TEAE Heart rate decreased, Number (%) of Subjects (SAD 20 mg (N = 6)): 1(16.7) Number (%)
- TEAE Investigations (SOC), Events (SAD 20 mg (N = 6)): 7
- TEAE Investigations (SOC), Number (%) of Subjects (SAD 20 mg (N = 6)): 4(66.7) Number (%)
- TEAE Nausea, Events (SAD 20 mg (N = 6)): 1
- TEAE Nausea, Number (%) of Subjects (SAD 20 mg (N = 6)): 1(16.7) Number (%)
- TEAE Neutrophil count decreased, Number (%) of Subjects (SAD 20 mg (N = 6)): 0 Number (%)
- TEAE Neutrophil count increased (first line, r9), Number (%) of Subjects (SAD 20 mg (N = 6)): 0 Number (%)
- TEAE Neutrophil count increased (second line, r18), Number (%) of Subjects (SAD 20 mg (N = 6)): 0 Number (%)
- TEAE Rash, Number (%) of Subjects (SAD 20 mg (N = 6)): 0 Number (%)
- TEAE Skin and subcutaneous tissue disorders (SOC), Number (%) of Subjects (SAD 20 mg (N = 6)): 0 Number (%)
- TEAE Systolic blood pressure decreased, Events (SAD 20 mg (N = 6)): 2
- TEAE Systolic blood pressure decreased, Number (%) of Subjects (SAD 20 mg (N = 6)): 2(33.3) Number (%)
- TEAE Ventricular hypokinesia, Number (%) of Subjects (SAD 20 mg (N = 6)): 0 Number (%)
- TEAE White blood cell count decreased, Number (%) of Subjects (SAD 20 mg (N = 6)): 0 Number (%)
- TEAE White blood cell count increased, Number (%) of Subjects (SAD 20 mg (N = 6)): 0 Number (%)
- TEAEs, Events (SAD 20 mg (N = 6)): 10
- TEAEs, Number (%) of Subjects (SAD 20 mg (N = 6)): 4(66.7) Number (%)
- deaths, SAEs, AESIs, discontinuations due to TEAEs, LVEF <50% (all cohorts): no deaths, serious adverse events (SAEs)
- severity of TEAEs (all cohorts): mild
- safety and tolerability, in words: well-tolerated
- safety and tolerability, in words (listed as Aficamten): safe and well-tolerated

Reference: paper PMC10482267, “Safety, tolerability, pharmacokinetics, and pharmacodynamics of single and multiple doses of aficamten in healthy Chinese participants: a randomized, double-blind, placebo-controlled, phase 1 study” (Frontiers in Pharmacology, 2023)
